Assay results published in PubChem BioAssay (NCI).
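Step 1: Grow cells in 96-well plates. Step 2: Expose to compound for 48 hours at 5 concentrations. Step 3: Interpolate endpoints linearly; if unreached, use highest concentration. TGI: concentration producing complete growth inhibition.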

tested on: HOP-62 NSCLC; experiment: DTP human tumour cell line panel, 48 h

| SMILES | TGI [µM] |
| --- | --- |
| COc1ccc(NC(C)=O)cc1N1C(=O)/C(=C\c2cccc(Oc3ccccc3)c2)S(=O)(=O)C1c1ccccc1 (configuration not stated) | > 100 |
| OCCOCCO/N=C1\C(c2c(O)[nH]c3ccccc23)=Nc2ccccc21 | 27.6 |
| Cc1nc2ccccc2c(=O)n1NC(=O)c1ccc(N)cc1 | > 100 |

tested on: NCI-H522 lung; experiment: DTP human tumour cell line panel, 48 h

| SMILES | TGI [µM] |
| --- | --- |
| Oc1ccc(-c2nc3ccc(F)cc3s2)cc1 | 26.9 |
| COc1ccc(NC(C)=O)cc1N1C(=O)/C(=C\c2cccc(Oc3ccccc3)c2)S(=O)(=O)C1c1ccccc1 (configuration not stated) | > 100 |
| OCCOCCO/N=C1\C(c2c(O)[nH]c3ccccc23)=Nc2ccccc21 | 17 |
| Cc1nc2ccccc2c(=O)n1NC(=O)c1ccc(N)cc1 | > 100 |

tested on: SF-268 CNS; experiment: DTP human tumour cell line panel, 48 h

| SMILES | TGI [µM] |
| --- | --- |
| CCc1c(-c2ccccc2)[nH]c2ccccc2c1=O | > 100 |
| Oc1ccc(-c2nc3ccc(F)cc3s2)cc1 | 58.9 |
| OCCOCCO/N=C1\C(c2c(O)[nH]c3ccccc23)=Nc2ccccc21 | 17.8 |
| Cc1nc2ccccc2c(=O)n1NC(=O)c1ccc(N)cc1 | > 100 |

tested on: MDA-MB-231 breast; experiment: DTP human tumour cell line panel, 48 h

| SMILES | TGI [µM] |
| --- | --- |
| CCc1c(-c2ccccc2)[nH]c2ccccc2c1=O | > 100 |
| Oc1ccc(-c2nc3ccc(F)cc3s2)cc1 | 49 |
| COc1ccc(NC(C)=O)cc1N1C(=O)/C(=C\c2cccc(Oc3ccccc3)c2)S(=O)(=O)C1c1ccccc1 (configuration not stated) | > 100 |
| OCCOCCO/N=C1\C(c2c(O)[nH]c3ccccc23)=Nc2ccccc21 | 29.9 |
| Cc1nc2ccccc2c(=O)n1NC(=O)c1ccc(N)cc1 | > 100 |

tested on: PC-3 prostate; experiment: DTP human tumour cell line panel, 48 h

| SMILES | TGI [µM] |
| --- | --- |
| Oc1ccc(-c2nc3ccc(F)cc3s2)cc1 | 44.5 |
| COc1ccc(NC(C)=O)cc1N1C(=O)/C(=C\c2cccc(Oc3ccccc3)c2)S(=O)(=O)C1c1ccccc1 (configuration not stated) | > 100 |
| OCCOCCO/N=C1\C(c2c(O)[nH]c3ccccc23)=Nc2ccccc21 | 18.1 |
| Cc1nc2ccccc2c(=O)n1NC(=O)c1ccc(N)cc1 | > 100 |

tested on: SK-MEL-28 melanoma; experiment: DTP human tumour cell line panel, 48 h

| SMILES | TGI [µM] |
| --- | --- |
| CCc1c(-c2ccccc2)[nH]c2ccccc2c1=O | > 100 |
| COc1ccc(NC(C)=O)cc1N1C(=O)/C(=C\c2cccc(Oc3ccccc3)c2)S(=O)(=O)C1c1ccccc1 (configuration not stated) | > 100 |
| OCCOCCO/N=C1\C(c2c(O)[nH]c3ccccc23)=Nc2ccccc21 | > 85.2 |
| Cc1nc2ccccc2c(=O)n1NC(=O)c1ccc(N)cc1 | > 100 |

tested on: NCI-H226 lung; experiment: DTP human tumour cell line panel, 48 h

| SMILES | TGI [µM] |
| --- | --- |
| CCc1c(-c2ccccc2)[nH]c2ccccc2c1=O | 84 |
| Oc1ccc(-c2nc3ccc(F)cc3s2)cc1 | 44.5 |
| COc1ccc(NC(C)=O)cc1N1C(=O)/C(=C\c2cccc(Oc3ccccc3)c2)S(=O)(=O)C1c1ccccc1 (configuration not stated) | > 100 |
| OCCOCCO/N=C1\C(c2c(O)[nH]c3ccccc23)=Nc2ccccc21 | 10.3 |
| Cc1nc2ccccc2c(=O)n1NC(=O)c1ccc(N)cc1 | > 100 |

tested on: RXF 393 renal; experiment: DTP human tumour cell line panel, 48 h

| SMILES | TGI [µM] |
| --- | --- |
| CCc1c(-c2ccccc2)[nH]c2ccccc2c1=O | > 100 |
| Oc1ccc(-c2nc3ccc(F)cc3s2)cc1 | 68.2 |
| COc1ccc(NC(C)=O)cc1N1C(=O)/C(=C\c2cccc(Oc3ccccc3)c2)S(=O)(=O)C1c1ccccc1 (configuration not stated) | > 100 |
| OCCOCCO/N=C1\C(c2c(O)[nH]c3ccccc23)=Nc2ccccc21 | 6.42 |
| Cc1nc2ccccc2c(=O)n1NC(=O)c1ccc(N)cc1 | > 100 |

tested on: CAKI-1 renal; experiment: DTP human tumour cell line panel, 48 h

| SMILES | TGI [µM] |
| --- | --- |
| CCc1c(-c2ccccc2)[nH]c2ccccc2c1=O | > 100 |
| Oc1ccc(-c2nc3ccc(F)cc3s2)cc1 | 37 |
| COc1ccc(NC(C)=O)cc1N1C(=O)/C(=C\c2cccc(Oc3ccccc3)c2)S(=O)(=O)C1c1ccccc1 (configuration not stated) | 44.8 |
| OCCOCCO/N=C1\C(c2c(O)[nH]c3ccccc23)=Nc2ccccc21 | 10.8 |

tested on: SF-539 CNS; experiment: DTP human tumour cell line panel, 48 h

| SMILES | TGI [µM] |
| --- | --- |
| CCc1c(-c2ccccc2)[nH]c2ccccc2c1=O | > 100 |
| Oc1ccc(-c2nc3ccc(F)cc3s2)cc1 | 34 |
| COc1ccc(NC(C)=O)cc1N1C(=O)/C(=C\c2cccc(Oc3ccccc3)c2)S(=O)(=O)C1c1ccccc1 (configuration not stated) | 74.6 |
| OCCOCCO/N=C1\C(c2c(O)[nH]c3ccccc23)=Nc2ccccc21 | 11.5 |
| Cc1nc2ccccc2c(=O)n1NC(=O)c1ccc(N)cc1 | > 100 |

tested on: UACC-257 melanoma; experiment: DTP human tumour cell line panel, 48 h

| SMILES | TGI [µM] |
| --- | --- |
| CCc1c(-c2ccccc2)[nH]c2ccccc2c1=O | > 100 |
| Oc1ccc(-c2nc3ccc(F)cc3s2)cc1 | 37.2 |
| COc1ccc(NC(C)=O)cc1N1C(=O)/C(=C\c2cccc(Oc3ccccc3)c2)S(=O)(=O)C1c1ccccc1 (configuration not stated) | > 100 |
| OCCOCCO/N=C1\C(c2c(O)[nH]c3ccccc23)=Nc2ccccc21 | > 73.1 |
| Cc1nc2ccccc2c(=O)n1NC(=O)c1ccc(N)cc1 | > 100 |

tested on: COLO 205 colon; experiment: DTP human tumour cell line panel, 48 h

| SMILES | TGI [µM] |
| --- | --- |
| Oc1ccc(-c2nc3ccc(F)cc3s2)cc1 | 29.9 |
| COc1ccc(NC(C)=O)cc1N1C(=O)/C(=C\c2cccc(Oc3ccccc3)c2)S(=O)(=O)C1c1ccccc1 (configuration not stated) | > 100 |
| OCCOCCO/N=C1\C(c2c(O)[nH]c3ccccc23)=Nc2ccccc21 | 3.38 |
| Cc1nc2ccccc2c(=O)n1NC(=O)c1ccc(N)cc1 | > 100 |

tested on: U251 CNS; experiment: DTP human tumour cell line panel, 48 h

| SMILES | TGI [µM] |
| --- | --- |
| CCc1c(-c2ccccc2)[nH]c2ccccc2c1=O | > 100 |
| Oc1ccc(-c2nc3ccc(F)cc3s2)cc1 | 39.9 |
| COc1ccc(NC(C)=O)cc1N1C(=O)/C(=C\c2cccc(Oc3ccccc3)c2)S(=O)(=O)C1c1ccccc1 (configuration not stated) | > 100 |
| OCCOCCO/N=C1\C(c2c(O)[nH]c3ccccc23)=Nc2ccccc21 | 16.8 |
| Cc1nc2ccccc2c(=O)n1NC(=O)c1ccc(N)cc1 | > 100 |

tested on: HOP-92 NSCLC; experiment: DTP human tumour cell line panel, 48 h

| SMILES | TGI [µM] |
| --- | --- |
| COc1ccc(NC(C)=O)cc1N1C(=O)/C(=C\c2cccc(Oc3ccccc3)c2)S(=O)(=O)C1c1ccccc1 (configuration not stated) | > 100 |
| OCCOCCO/N=C1\C(c2c(O)[nH]c3ccccc23)=Nc2ccccc21 | 69.6 |
| Cc1nc2ccccc2c(=O)n1NC(=O)c1ccc(N)cc1 | > 100 |

tested on: SK-MEL-2 melanoma; experiment: DTP human tumour cell line panel, 48 h

| SMILES | TGI [µM] |
| --- | --- |
| CCc1c(-c2ccccc2)[nH]c2ccccc2c1=O | > 100 |
| Oc1ccc(-c2nc3ccc(F)cc3s2)cc1 | 34.9 |
| COc1ccc(NC(C)=O)cc1N1C(=O)/C(=C\c2cccc(Oc3ccccc3)c2)S(=O)(=O)C1c1ccccc1 (configuration not stated) | > 100 |
| OCCOCCO/N=C1\C(c2c(O)[nH]c3ccccc23)=Nc2ccccc21 | 13.7 |

tested on: EKVX NSCLC; experiment: DTP human tumour cell line panel, 48 h

| SMILES | TGI [µM] |
| --- | --- |
| CCc1c(-c2ccccc2)[nH]c2ccccc2c1=O | > 100 |
| Oc1ccc(-c2nc3ccc(F)cc3s2)cc1 | 25.4 |
| COc1ccc(NC(C)=O)cc1N1C(=O)/C(=C\c2cccc(Oc3ccccc3)c2)S(=O)(=O)C1c1ccccc1 (configuration not stated) | > 100 |
